B1: BDNF: Brain-derived neurotrophic factor, used as a positive (neuroprotective) control (protein, UniProt P23560 19-247, looked up)
Neurotrophic factor BDNF …: APMKEANIRGQGGLAYPGVRTHGTLESVNGPKAGSRGLTSLADTFEHVIEELLDEDQKVRPNEENNKDADLYTSRVMLSSQVPLEPPLLFLLEEYKNYLDAANMSMRVRRHSDPARRGELSVCDSISEWVTAADKKTAVDMSGGTVTVLEKVPVSKGQLKQYFYETKCNPMGYTKEGCRGIDKRHWNSQCRTTQSYVRALTMDSKKRIGWRFIRIDTSCVCTLTIKRGR

What was measured:
[1] = tested on: rat primary cortical neurons; assay: Neurite outgrowth (neurites length) in beta-amyloid Aβ25-35 intoxicated rat primary cortical neuron culture; format: cell-based; settings: Aβ25-35 20 μM for 2 days, drug added 1 hour before, Fig. 1A, 1B
Description: Viable cells are counted in a Neubauer cytometer using the trypan blue exclusion test.

[2] = tested on: rat primary cortical neurons; assay: LDH release in human Aβ1-42 toxicity on rat primary cortical cells; format: cell-based; settings: 1 h pre-treatment, Aβ1-42 10 μM for 24 h
Protocol: Primary rat cortical neurons are cultured as described previously. […] The control medium was prepared in the same conditions.
Cortical neurons were intoxicated for 24 hours. Three separate cultures were performed per condition, 6 wells per condition.
This colorimetric assay for the quantification of cell toxicity is based on the measurement of lactate dehydrogenase (LDH) activity released from the cytosol of dying cells into the supernatant.

Row | Molecule | Prevention of Aβ25-35 intoxication (neurite outgrowth, neurites length) [1] | Prevention of Aβ1-42 intoxication, change of LDH release ([2]; Fig. 3B, 3C) | Protection from Aβ1-42 amyloid injury (LDH release) ([2]; Fig. 3A)
1 | CC(=O)NCCCS(=O)(=O)O [Acamprosate] | significantly prevented |  | 
2 | NS(=O)(=O)Cc1noc2ccccc12 [Zonisamide] | significantly prevented | −75% | 
3 | B1 | efficiently prevented |  | significantly protected
